Assay [1] addresses muscarinic cholinergic receptor. Briefly: [^3 H] Quinuclidinyl Benzilate (^3 H-QNB) Binding Assay. Particulars: rat cerebral cortex, ^3 H-QNB 0.25 nM, 25° C., 120 minutes, pH 7.4.
For assay [2] the target is unchanged. Briefly: [^3 H]-Cis-methyldioxolane (^3 H-CD) Binding Assay (High Affinity). The conditions noted are these: rat cerebral cortex, ^3 H-CD 1.0 nM, 25° C., 120 minutes, pH 7.4, high affinity agonist conformation.
Another assay concerns muscarinic sites. The conditions noted are these: cited from earlier work.
For another assay, the system named is presynaptic cholinergic. Particulars: should disinhibit the release of endogenous acetylcholine; cited from earlier work.
A further assay has as its system postsynaptic cholinergic. Particulars: should mimic the effects of acetylcholine; cited from earlier work.
A further assay concerns aged monkey. Particulars: aged monkeys; cited from earlier work.
In the next assay the test system is SDAT patients. Particulars: compared to the anticholinesterase inhibitor physostigmine; cited from earlier work.

SMILES strings stand for the structures. Counter-ions that a name gives are not always drawn.

`CS(=O)(=O)N1CCC[C@@H]1C#CCN1CCCC1` [(R)-1-(Methylsulfonyl)-2-[3-(1-pyrrolidinyl)-1-propynyl]pyrrolidine, hydrochloride]: the IC50 (commonly the concentration needed to halve the response being measured) amounted to 25 µM in assay [1] (hydrochloride) and 2.45 µM in assay [2] (hydrochloride).
Regarding `CS(=O)(=O)N1CCC[C@@H]1C#CCN1CCCC1` [(R)-1-(Methylsulfonyl)-2-[3-(1-pyrrolidinyl)-1-propynyl]pyrrolidine], the IC50 was found to be 23 µM in assay [1] and 0.973 µM in assay [2].
The like results for `CC(=O)N1CCC[C@@H]1C#CCN1CCCC1` [(R)-1-Acetyl-2-[3-(1-pyrrolidinyl)-1-propynyl]pyrrolidine] were, in that order, 8.8 µM and 0.78 µM.
As to `C(#C[C@H]1CCCN1)CN1CCCC1` [(R)-1-[3-(2-Pyrrolidinyl)-2-propynyl] pyrrolidine, dihydrochloride], the figures for the IC50 in assay [1] (dihydrochloride) and in assay [2] (dihydrochloride) were 2.7 µM and 0.742 µM, respectively.
For the molecule `C(#C[C@H]1CCCN1)CN1CCCC1` [(R)-1-[3-(2-Pyrrolidinyl)-2-propynyl]pyrrolidine], the IC50 turned out to be 3.1 µM in assay [1] and 0.514 µM in assay [2].
The like results for `O=CN1CCC[C@@H]1C#CCN1CCCC1` [(R)-2-(3-(1-Pyrrolidinyl)-1-propynyl]-1-pyrrolidine-carboxaldehyde] were, in that order, 34 µM and 3.58 µM.
In the case of `O=C(N1CCC[C@@H]1C#CCN1CCCC1)C(F)(F)F` [(R)-2-[3-(1-Pyrrolidinyl)-1-propynyl]-1-(trifluoroacetyl)pyrrolidine, dihydrochloride], the IC50 in assay [1] (dihydrochloride) was 43 µM; in assay [2] (dihydrochloride), 8.57 µM.
Turning to `O=C(N1CCC[C@@H]1C#CCN1CCCC1)C(F)(F)F` [(R)-2-[3-(1-Pyrrolidinyl)-1-propynyl]-1-(trifluoroacetyl)pyrrolidine], the IC50 in assay [1] was 40 µM; in assay [2] it was 2.58 µM.
The like results for `CC(C)(C)OC(=O)N1CCC[C@@H]1C#CCN1CCCC1` [(R)-2-[3-(1-Pyrrolidinyl)-1-propynyl]-1-pyrrolidine-carboxylic acid, 1,1-dimethylethyl ester] were, in that order, 6.5 µM and 0.029 µM.
As for `CS(=O)(=O)N1CCC[C@H]1C#CCN1CCCC1` [(S)-1-(Methylsulfonyl)-2-[3-(1-pyrrolidinyl)-1propynyl]pyrrolidine, hydrochloride], the IC50 is 47 µM in assay [1] (hydrochloride) and 8.08 µM in assay [2] (hydrochloride).
As for `CS(=O)(=O)N1CCC[C@H]1C#CCN1CCCC1` [(S)-1-(Methylsulfonyl)-2-[3-(1-pyrrolidinyl]-1-propynyl]pyrrolidine], the values for the concentration for half-maximal inhibition (IC50) in assay [1] and in assay [2] were 43 µM and 6.78 µM, respectively.
For `CC(=O)N1CCC[C@H]1C#CCN1CCCC1` [(S)-1-Acetyl-2-[3-(1-pyrrolidinyl)-1-propynly]-pyrrolidine, hydrochloride], the 50% inhibitory concentration (IC50) was 73 µM in assay [1] (hydrochloride) and 3.26 µM in assay [2] (hydrochloride).
In the case of `CC(=O)N1CCC[C@H]1C#CCN1CCCC1` [(S)-1-Acetyl-2-[3-(1-pyrrolidinyl)-1-propynyl]pyrrolidine], the IC50 in assay [1] turned out to be 76 µM; in assay [2], 2.71 µM.
As for `O=CN1CCC[C@H]1C#CCN1CCCC1` [(S)-2-[3-(1-Pyrrolidinyl)-1-propynyl]1-pyrrolidine-carboxaldehyde, hydrochloride], the IC50 in assay [1] (hydrochloride) is 88 µM; in assay [2] (hydrochloride) it was 11.1 µM.
On to `CC(C)(C)OC(=O)N1CCC[C@H]1C#CCN1CCCC1` [(S)-2-[3-(1-Pyrrolidinyl)-1-propynyl]1-pyrrolidine-carboxylic acid, 1,1-dimethylethyl ester], for which the results for the 50% inhibitory concentration (IC50) in assay [1] and in assay [2] were 4.2 µM and 0.247 µM, respectively.
For `O=C(N1CCC[C@H]1C#CCN1CCCC1)C(F)(F)F` [(S)-2-[3-(1-Pyrrolidinyl)-1-propynyl]1-trifluoroacetyl) pyrrolidine, hydrochloride], the IC50 in assay [1] (hydrochloride) was 16 µM; in assay [2] (hydrochloride), 3.83 µM.
As to `O=C(N1CCC[C@H]1C#CCN1CCCC1)C(F)(F)F` [(S)-2-[3-(1-Pyrrolidinyl)-1-propynyl]-1-(trifluoroacetyl)pyrrolidine], the results for the half-inhibitory concentration (IC50) in assay [1] and in assay [2] were 18 µM and 5.47 µM, respectively.
As to `O=CN1CCC[C@H]1C#CCN1CCCC1` [(S)-2-[3-(1-Pyrrolidinyl)-1-propynyl]-1-pyrrolidinecarboxaldehyde], the IC50 worked out at 65 µM in assay [1] and 5.24 µM in assay [2].
Take `CC(=O)N(C)C(C)C#CCN1CCCC1` (stereo not drawn) [BM-5, N-methyl-N-(1-methyl-4-pyrrolidino-2-butynyl)acetamide]: in the assay with muscarinic sites, the “antagonist/agonist action at muscarinic sites” value is given as “antagonist at some muscarinic sites while being an agonist at most others”. The presynaptic cholinergic action entry with presynaptic cholinergic is “presynaptic cholinergic antagonist”. In addition, the postsynaptic cholinergic action entry in the assay with postsynaptic cholinergic was “postsynaptic partial cholinergic agonist”.
For `COC(=O)C1=CCCN(C)C1` [arecoline], in the assay on aged monkey, the improvement in performance entry is “significant improvement in performance”. Also, the “improvement in SDAT patients compared to physostigmine” value with SDAT patients is listed as “more-consistent improvement”.
For `O=C1CCCN1CC#CCN1CCCC1` [oxotremorine], the improvement in performance result with aged monkey was “significant improvement in performance”.

These data come from US5001142A, “1-substituted-2-(3-amino-1-propynyl)pyrrolidine derivatives” (American Cyanamid Company, priority 1989, dated 1991).
